Earlier results, collected in US20260272955A1, “Controlled Release Formulations of Highly Lipophilic Physiologically Active Substances” (ADD Advanced Drug Delivery Technologies Ltd., priority 2019, published 2026).

Details: decimal logarithm of the n-octanol/water partition coefficient; values typically refer to room temperature (25° C.)

Compound: C=C(C)[C@@H]1CCC(C)=C[C@H]1c1c(O)cc(CCCCC)cc1O [Canapure PH, 2-[1R-3-methyl-6R-(1-methylethenyl)-2-cyclohexen-1-yl]-5-pentyl-1,3-benzenediol]
- log P: about 6.1
